Results taken from US20230348538A1, “METHOD FOR TREATMENT OF DRY EYE COMPRISNG APPLYING P55PIK INHIBITOR” (Wuhan Yicheng Biological Technology Co., Ltd., priority 2020, published 2023).

System: dry eye model induced by 0.2% benzalkonium chloride solution
Experiment: Benzalkonium chloride dry eye model: Schirmer's test I (phenol red thread)
Type: in vivo, C57BL/6 mice
Method: The healthy male C57BL/6 mice were kept in a controlled environment with a temperature of (25±1)° C., a relative humidity of (25±5)%, and light-dark cycles (9 AM-9 PM) with simulated dawn and dusk. Forty mice (80 eyes) were treated with 5 μL of 0.2% benzalkonium chloride solution twice a day (8:00 AM and 6:00 PM) for 14 days to induce dry eye symptoms, while the remaining ten mice (20 eyes) received no treatment and served as a baseline control. Modeling was carried out on the 15th day; and the dry eye rat models were screened based on tear film break-up time (BUT), fluorescein sodium staining of corneal, and Schirmer's test I for tear secretion. To assess tear secretion, Schirmer's test I was performed on mice at 3 PM each day using the phenol red thread; general anesthesia was induced by intraperitoneal injection of pentobarbital (50 mg/kg body weight); the lower eyelid was grasped and gently pulled down; front end of the phenol red thread, folded 1 mm, was placed on the conjunctival surface near the outer canthus of the lower eyelid for 15 seconds; the length of the red-stained portion of the phenol red thread was measured and recorded; the eyelid was then closed after the Schirmer's test I to avoid excessive exposure; each eye was tested twice, and the average length of the red-stained portion of the phenol red thread was recorded as the final result. […] Group A, the drug treatment group, was treated with the eye drops comprising 0.1% TAT-[…] peptide, four times a day; Group B, the solvent control group, was treated with eye drops without TAT-[…] peptide, four times a day; and Group C, the blank control group, received no treatment; on days 1, 4, and 7 after treatment, BUT, Schirmer's test I, and fluorescein sodium staining were performed; on the 7th day, the paraffin sections of the conjunctival fornix was stained by PAS stain; and the number of PAS-positive goblet cells was counted.

Substance: TAT-N16 peptide: cell-penetrating artificial peptide, sequence SEQ ID NO: 2, constructed by linking the peptide N16 to a TAT sequence; P55PIK inhibitor (YGRKKRRQRRRMMPYSTELIFYIEMDP)
- Tear secretion volume compared with blank control group and solvent control group (4th day of treatment): significantly higher
- Schirmer's test I values (x ± s) (4 days of treatment, 0.1% eye drops four times a day): 5.14 ± 0.29 mm
- Tear secretion volume compared with blank control group and solvent control group (7 days of continuous treatment, P<0.05): significantly higher
- Schirmer's test I values (x ± s) (7 days of treatment, 0.1% eye drops four times a day): 5.88 ± 0.63 mm
- Schirmer's test I values (x ± s) (before treatment (baseline), drug treatment group, 0.1% eye drops): 4.19 ± 0.24 mm
